8 molecules from PubChem BioAssay (NCI) can be followed below.

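Where inhibition never reached the appropriate level, the endpoint shown equals the highest concentration tested. Otherwise, values were interpolated linearly from a five-concentration, 48-hour dose response in 96-well plates. TGI denotes the concentration required for complete inhibition of growth.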 Bounds are passed on as bounds.

Test in all cases: inhibition of tumour cell growth, NCI panel, 48 h
The subject of assay [1] is A498 renal.
The subject of assay [2] is A549 NSCLC.
The subject of assay [3] is CCRF-CEM leukemia.
The subject of assay [4] is COLO 205 colon.
In assay [5] the test system is DU-145 prostate.
In assay [6] the test system is HCT-116 colon.
Assay [7] deals with IGROV1 ovarian.
The subject of assay [8] is KM12 colon.
The subject of assay [9] is LOX IMVI melanoma.
Assay [10] concerns MALME-3M melanoma.
Assay [11] has as its system MDA-MB-435.
For assay [12], the system named is NCI-H460 lung.
Assay [13] relates to OVCAR-3 ovarian.
Assay [14] has as its system SF-268 CNS.
Assay [15] concerns SF-295 CNS.
Assay [16] deals with SF-539 CNS.
Assay [17] relates to SR leukemia.
Assay [18] relates to SW-620 colon.
Assay [19] has as its system MCF7 breast.

Consider `CCCCCCCCC#CCCCCCCC(F)C(=O)O` (configuration not stated), for which the TGI in assay [1], in assay [2], in assay [3], in assay [4], in [5] and in assay [6] was greater than 100 µM in each case. Besides, the TGI in [7], in assay [8], in assay [9], in [10], in [11] and in [12] was greater than 100 µM each time. Also, the TGI in [13], in assay [14], in assay [15], in [16], in assay [17] and in [18] was greater than 100 µM each time.

With `CCN1C(c2ccccc2)=CC(c2ccccc2)(C(Cl)(Cl)Cl)C=C1c1ccccc1`, the TGI was 54.4 µM in assay [1]; greater than 100 µM in assay [2]; greater than 100 µM in [3]; greater than 100 µM in assay [5]; 29.3 µM in [6]; 27.9 µM in assay [7]. The TGI was 16.2 µM in [8]; 56.7 µM in [9]; 24 µM in assay [10]; greater than 100 µM in assay [19]; 9.51 µM in assay [11]; 23.3 µM in assay [12]. Besides, the TGI is greater than 100 µM in [13]; 86.3 µM in assay [14]; greater than 100 µM in assay [15]; 37 µM in assay [16]; greater than 100 µM in assay [18].

Take `CC1=CC(=O)c2ccc3c4ccccc4n(C)c3c2C1=O`: the TGI in assay [1] was greater than 100 µM; in [2], greater than 100 µM; in assay [3], greater than 81.5 µM; in assay [4], greater than 100 µM; in assay [5], greater than 100 µM; in [6] it was greater than 100 µM. Also, the TGI in assay [7] is greater than 100 µM; in [8], greater than 100 µM; in assay [10], 30 µM; in assay [19], greater than 100 µM; in assay [11] it was 33.4 µM; in [12], greater than 100 µM. Further, the TGI in assay [13], in [14], in [15], in assay [16] and in [18] was greater than 100 µM throughout.

Regarding `CC(C)CC1C(=O)OC(C)(C)OC1=O`, the TGI in [1], in [2], in assay [3], in assay [4], in assay [5] and in [6] was greater than 100 µM in each case. The TGI in [7], in assay [8], in [9], in [19], in assay [11] and in assay [12] was greater than 100 µM in each case. The TGI in assay [13], in assay [14], in assay [15], in [16] and in [18] was greater than 100 µM throughout.

On to `CN(C)/C=N/S(=O)(=O)c1nn2c(C=O)c(-c3ccc(-c4ccccc4)cc3)nc2s1`, for which the TGI in assay [1] was 47.5 µM; in [2], greater than 44.5 µM; in assay [3] it was 0.647 µM; in assay [5], 6.13 µM; in assay [6], 2.99 µM; in [7] it was 2.59 µM. In addition, the TGI in assay [8] is 7.36 µM; in assay [9] it was 2.76 µM; in [10] it was 2.71 µM; in [11], 4.8 µM; in [12], 13.7 µM; in assay [13], 3.73 µM. The TGI in assay [14] is 6.23 µM; in assay [15] it was 42.5 µM; in assay [16] it was 7.54 µM; in assay [17] it was 1.89 µM; in [18] it was greater than 26.9 µM.

Take `N=c1oc2ccccc2cc1C(=O)Nc1ccccn1`: the TGI in assay [1], in assay [2], in assay [3], in assay [4], in assay [5] and in [6] was greater than 100 µM throughout. For the same molecule, the TGI in [7] is greater than 100 µM; in assay [8], greater than 100 µM; in [9] it was greater than 100 µM; in assay [10] it was 54 µM; in [11], greater than 100 µM; in assay [12], greater than 100 µM. Besides, the TGI in assay [13], in [14], in [16], in [17] and in [18] was greater than 100 µM throughout.

For the molecule `COc1ccc2c(c1)C1Oc3ccccc3CC1CO2` (configuration not stated), the TGI was 96.2 µM in [1]; greater than 100 µM in assay [2]; greater than 100 µM in assay [3]; greater than 100 µM in assay [4]; greater than 100 µM in [5]; greater than 100 µM in assay [6]. Further, the TGI in assay [7], in assay [8], in assay [9], in assay [10], in assay [19] and in assay [11] was greater than 100 µM each time. The TGI in assay [12], in [13], in assay [14], in assay [15], in assay [16] and in [18] was greater than 100 µM each time.

As for `C1=C(c2ccccc2)NC2=N[C@H]3CCCC[C@@H]3N2C1c1ccccc1` (some centres not stated), the TGI stood at 30.2 µM in [1]; 43.4 µM in assay [3]; 25.2 µM in assay [4]; 29.6 µM in assay [5]; 20.2 µM in assay [6]; 26 µM in assay [7]. Moreover, the TGI is 22.9 µM in assay [8]; 29.6 µM in assay [9]; 26.6 µM in assay [10]; 26.4 µM in [11]; 25.3 µM in assay [12]; 25.8 µM in assay [13]. Moreover, the TGI worked out at 51.7 µM in [14], 25.7 µM in assay [15], 39.3 µM in [17] and 26 µM in [18].
